Experiments:
[1] = parameters: method as in Gómez-Galeno et al., 2010; settings: 100 μM for up to 6 hr; ref Gómez-Galeno et al., 2010; cited from earlier work
[2] = target: AMPKα2β1γ1 Thr172 dephosphorylation by PP2Cα (Homo sapiens, UniProt P54619+P54646); assay: Phosphatase protection assay (PP2Cα); format: biochemical; settings: incubation with PP2Cα; 1–10 μM
Protocol: Figure 2 C2 Is a Partial Agonist of α2 Complexes and Selectively Protects α1 Complexes against Dephosphorylation by PP2C (A and B) Recombinant AMPKα1β1γ1 (A) or AMPKα2β1γ1 (B) was assayed in the presence of AMP (30 μM) and increasing concentrations of C2 (0–20 μM). Results are expressed as fold increase in activity relative to controls without ligand and represent the mean ± SD for three independent experiments. (C and D) The effects of C2 and AMP on dephosphorylation and inactivation of AMPKα1β1γ1 (C) and α2β1γ1 (D) by PP2Cα (present in all assay conditions). Results are expressed as a percentage of control reactions performed in the absence of Mg^2+ and represent the mean ± SD of three independent experiments. Representative blots of pT172 and total AMPKα are shown below the bar charts. (E) AMPKα1β1γ2 WT (open bars) and mutant complexes (β1 ΔCBD [β1 Δ1–185], gray bars, and γ2 R531G, black bars) were purified from COS1 cells by transient overexpression of the indicated constructs, as described in Methods, and assayed in the presence of the indicated compounds under standard conditions. Results are expressed as the fold increase in activity relative to controls in the absence of compound and represent the mean ± SD for three independent experiments.
AMPKα1β1γ1 or α2β1γ1 was dephosphorylated in vitro with PP2Cα in 50 mM HEPES pH 7.4, 10 mM MgCl2, 0.1 mM EGTA, 0.03% BRIJ-35, 1 mM DTT, and the indicated compounds for 15 min at 30°C. Mg^2+ was omitted from the negative control. Reactions were terminated by 20-fold dilution and storage on ice. AMPK activity was assayed under standard conditions in the presence of saturating AMP (200 μM). The results are expressed as percentage activity of the negative control. In control experiments, PP2Cα activity was determined in reactions containing 50 mM TES pH 7.4, 0.1 mM EGTA, 25 mM MgCl2, 0.01% BRIJ-35, 0.02% (v/v) 2-mercaptoethanol, and 100 μM EFLR(pT)SCGS (168–176 AMPKα2). Liberated phosphate was determined using malachite green ([Baykov et al., 1988]).

[3] = tested on: AMPK signaling in mouse primary hepatocytes; assay: AMPK signaling in primary hepatocytes, western blotting; format: cell-based
Protocol: Figure 4 The C2 Prodrug, C13, Potently Activates AMPK in Mouse Primary Hepatocytes (A) Isolated mouse hepatocytes were incubated with vehicle or the indicated concentrations of C13 for 1 hr. AICAR (0.5 mM) was included as a positive control. Cell lysates were analyzed using western blotting with the indicated antibodies. (B) AMPKα1 or AMPKα2 complexes were immunoprecipitated from hepatocyte extracts prepared as described in (A) and assayed for kinase activity using 0.2 mM AMARA and 0.1 mM ATP. Results are expressed as the mean Pi incorporated in picomoles per minute-milligram ± SD. (C) Hepatocytes were stimulated with 30 μM C13 for the indicated times prior to harvesting, with AICAR (0.5 mM, 1 hr) as positive control. Lysates were analyzed using western blotting with the indicated antibodies. (D) Mouse hepatocytes were treated with the indicated compounds for 1 hr, and adenine nucleotide ratios were determined using capillary electrophoresis of perchloric acid extracts. (E) Mouse hepatocytes were preincubated with 30 μM STO-609 for 30 min prior to stimulation with 30 μM C13 for 1 hr or with 1 μM ionomycin for 30 min. Lysates were analyzed using western blotting with the indicated antibodies. (F) Wild-type (LKB1^+/+) or LKB1-null (LKB1^−/−) mouse embryonic fibroblasts were incubated with the indicated concentrations of C13 for 1 hr. AICAR (2 mM) was included as a positive control. Lysates were analyzed using western blotting with the indicated antibodies. Results are representative of three independent experiments. […]
Isolation of primary hepatocytes. Hepatocytes were isolated from fasted mice by collagenase digestion (Berry and Friend, 1969). Cells were seeded in M199 containing 100 U/ml penicillin G, 100 µg/ml streptomycin, 0.1 % (w/v) BSA, 10 % (v/v) FBS, 10 nM insulin, 200 nM triiodothyronine and 100 nM dexamethasone. Post attachment (3-4 h), cells were cultured overnight in M199 supplemented with antibiotics and 100 nM dexamethasone and used for experiments the following morning.
Western blotting. Cells were stimulated as indicated, rinsed with ice-cold PBS and lysed with 50 mM tris pH 7.5, 1 mM EDTA, 1 mM EGTA, 0.27 M sucrose, 1 % (w/v) Triton X-100, 20 mM glycerol-2-phosphate, 50 mM NaF, 5 mM Na4P2O7, 1 mM Na3VO4, 1 mM DTT, 0.5 mM PMSF, 1 mM benzamidine and 1 µM microcystin-LR. Lysates were clarified at 3000 g for 5 min at 4 °C and normalised using Bradford reagent and BSA as standard. Lysates (20 µg) were denatured in Laemlli buffer, separated on 7.5 % tris-glycine gels and transferred to PVDF in Towbin buffer. Membranes were blocked in 5 % (w/v) milk for 1 h at RT and incubated overnight in the indicated primary antibodies at 4 °C. Membranes were developed using HRP-conjugated antibodies and ECL reagent.
Nucleotide measurements. Cultured hepatocytes were incubated with the indicated compounds and washed with ice-cold 0.9 % (w/v) saline before extraction in 5 % perchloric acid. Precipitated material was removed by centrifugation (13,000 RPM, 3 min) and supernatant neutralised with 1:1 trioctylamine:Freon-113 (Khym, 1975). Nucleotides were separated and quantified by capillary electrophoresis using a Beckman P/ACE instrument as previously described (Hawley, et al., 2010).

Sequence of AMPKα2β1γ1 Thr172 dephosphorylation by PP2Cα (P54646 whole entry): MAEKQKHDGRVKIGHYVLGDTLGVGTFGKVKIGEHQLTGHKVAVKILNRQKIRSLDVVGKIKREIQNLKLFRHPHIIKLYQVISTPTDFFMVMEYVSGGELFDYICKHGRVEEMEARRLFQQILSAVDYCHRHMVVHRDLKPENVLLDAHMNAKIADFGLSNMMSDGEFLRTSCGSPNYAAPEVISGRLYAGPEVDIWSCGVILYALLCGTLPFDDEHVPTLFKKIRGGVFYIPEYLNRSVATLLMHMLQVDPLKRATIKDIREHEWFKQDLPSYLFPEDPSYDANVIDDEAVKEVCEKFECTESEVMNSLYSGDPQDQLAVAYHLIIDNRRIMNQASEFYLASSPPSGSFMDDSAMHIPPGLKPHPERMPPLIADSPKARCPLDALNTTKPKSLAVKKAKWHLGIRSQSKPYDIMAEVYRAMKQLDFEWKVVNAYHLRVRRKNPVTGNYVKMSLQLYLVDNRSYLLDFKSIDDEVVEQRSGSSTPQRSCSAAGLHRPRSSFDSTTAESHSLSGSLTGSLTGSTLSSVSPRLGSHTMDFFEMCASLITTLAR
Sequence of AMPKα2β1γ1 Thr172 dephosphorylation by PP2Cα (Q9Y478 whole entry partner): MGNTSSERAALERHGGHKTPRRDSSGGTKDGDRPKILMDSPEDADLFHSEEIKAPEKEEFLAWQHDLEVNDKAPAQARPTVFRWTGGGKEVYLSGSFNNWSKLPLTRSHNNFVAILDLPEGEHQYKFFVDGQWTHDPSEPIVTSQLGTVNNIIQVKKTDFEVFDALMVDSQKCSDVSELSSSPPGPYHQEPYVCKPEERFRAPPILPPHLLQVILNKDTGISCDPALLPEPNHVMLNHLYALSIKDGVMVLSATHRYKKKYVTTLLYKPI
Sequence of AMPKα2β1γ1 Thr172 dephosphorylation by PP2Cα (P54619 whole entry): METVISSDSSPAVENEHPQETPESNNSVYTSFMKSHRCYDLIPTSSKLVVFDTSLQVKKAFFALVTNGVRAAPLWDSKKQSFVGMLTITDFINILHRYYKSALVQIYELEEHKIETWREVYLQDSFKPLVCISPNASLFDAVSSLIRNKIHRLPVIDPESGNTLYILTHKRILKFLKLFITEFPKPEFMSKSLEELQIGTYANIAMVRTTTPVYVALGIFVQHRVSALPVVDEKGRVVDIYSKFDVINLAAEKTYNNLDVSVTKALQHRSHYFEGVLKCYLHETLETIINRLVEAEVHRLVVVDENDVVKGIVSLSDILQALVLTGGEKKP

| SMILES | cellular accumulation [1] | effect on dephosphorylation [2] | time course of Thr172 phosphorylation ([3]; 30 μM) | time to maximal phosphorylation of downstream targets (ACC, Raptor, and ULK1) ([3]; 30 μM) [min] | insulin-stimulated mTORC1 activation (phosphorylation of p70S6K and 4EBP1) ([3]; 30 µM, 10 mU/ml insulin, 60 min) | concentration above which Raptor and ULK1 were significantly phosphorylated ([3]; 1 hr) [µM] | concentration above which phosphorylation of ACC was evident ([3]; 1 hr) [µM] | concentration at which ACC phosphorylation appeared saturated ([3]; 1 hr) [µM] | concentration at which Thr389 p70S6K1 phosphorylation was suppressed ([3]; 1 hr) | lowest concentration with elevation of Thr172 phosphorylation ([3]; 1 hr) [µM] |
| --- | --- | --- | --- | --- | --- | --- | --- | --- | --- | --- |
| O=P(O)(O)c1ccc(-c2cc(O)on2)o1 [Compound C2, 5-(5-hydroxyl-isoxazol-3-yl)-furan-2-phosphonic acid] | no significant cellular accumulation | essentially no effect |  |  |  |  |  |  |  |  |
| CC(C)C(=O)OCOP(=O)(OCOC(=O)C(C)C)c1ccc(C2=NOC(=O)C2)o1 [Compound C13] |  |  | continually increased up to 2 hr | 45 to 60 | suppressed | 1 to 3 | 0.03 to 0.1 | 1 to 3 | above 1 μM | 10 |
